Test results published in the NIST ThermoML archive (doi:10.1016/j.jct.2017.09.022).
Numbers after ± are expanded uncertainties.

Assay: molar heat capacity at constant pressure
Conditions: 101.33 kPa, Crystal, Small (less than 1 g) adiabatic calorimetry

C[C@@H](O)[C@H](N)C(=O)O [L-threonine]
Conditions	molar heat capacity at constant pressure [J/K/mol]
5 K	0.06402 ± 0.017
7.37 K	0.2004 ± 0.019
7.65 K	0.2303 ± 0.02
8.44 K	0.3068 ± 0.022
9.19 K	0.3958 ± 0.025
9.43 K	0.4407 ± 0.027
9.67 K	0.4739 ± 0.028
9.9 K	0.4922 ± 0.029
10 K	0.5155 ± 0.025
10.18 K	0.5729 ± 0.032
10.51 K	0.6643 ± 0.036
10.84 K	0.7242 ± 0.037
11.17 K	0.8156 ± 0.042
11.5 K	0.9129 ± 0.045
11.83 K	0.9969 ± 0.049
12.17 K	1.113 ± 0.053
12.51 K	1.243 ± 0.058
12.84 K	1.353 ± 0.063
13.18 K	1.481 ± 0.068
13.53 K	1.619 ± 0.073
13.87 K	1.76 ± 0.079
14.22 K	1.913 ± 0.086
14.57 K	2.065 ± 0.091
14.92 K	2.237 ± 0.098
15 K	2.278 ± 0.091
15.27 K	2.377 ± 0.1
15.62 K	2.567 ± 0.11
15.97 K	2.765 ± 0.12
16.32 K	2.985 ± 0.13
16.68 K	3.152 ± 0.14
17.04 K	3.354 ± 0.14
17.4 K	3.602 ± 0.15
17.76 K	3.807 ± 0.16
18.11 K	4.063 ± 0.17
18.48 K	4.285 ± 0.18
18.83 K	4.521 ± 0.19
19.2 K	4.803 ± 0.2
19.56 K	5.051 ± 0.21
19.93 K	5.331 ± 0.22
20 K	5.346 ± 0.22
20.52 K	5.738 ± 0.11
21.27 K	6.302 ± 0.12
22.01 K	6.89 ± 0.13
22.77 K	7.515 ± 0.14
23.52 K	8.157 ± 0.15
24.28 K	8.822 ± 0.17
25 K	9.478 ± 0.17
25.04 K	9.545 ± 0.17
25.8 K	10.28 ± 0.19
26.57 K	10.94 ± 0.2
27.34 K	11.62 ± 0.21
28.11 K	12.31 ± 0.22
28.88 K	13.09 ± 0.23
29.66 K	13.84 ± 0.24
30 K	14.22 ± 0.25
30.44 K	14.63 ± 0.27
31.22 K	15.38 ± 0.28
32.01 K	16.18 ± 0.29
32.79 K	16.94 ± 0.3
33.58 K	17.68 ± 0.32
34.37 K	18.37 ± 0.32
35 K	19.04 ± 0.33
35.15 K	19.16 ± 0.34
35.94 K	19.87 ± 0.35
36.73 K	20.63 ± 0.37
37.52 K	21.36 ± 0.37
38.32 K	22.06 ± 0.38
39.11 K	22.79 ± 0.4
39.9 K	23.46 ± 0.41
40 K	23.61 ± 0.33
40.69 K	24.2 ± 0.42
41.48 K	24.95 ± 0.43
42.28 K	25.65 ± 0.44
43.08 K	26.38 ± 0.46
43.88 K	27.09 ± 0.47
44.68 K	27.83 ± 0.47
45 K	28.02 ± 0.5
45.48 K	28.52 ± 0.49
46.27 K	29.22 ± 0.5
47.07 K	29.92 ± 0.52
47.87 K	30.56 ± 0.52
48.67 K	31.17 ± 0.53
49.47 K	31.85 ± 0.54
50 K	32.34 ± 0.5
50.27 K	32.5 ± 0.56
51.07 K	33.12 ± 0.57
51.88 K	33.83 ± 0.57
52.68 K	34.53 ± 0.59
53.48 K	35.28 ± 0.6
54.29 K	36.14 ± 0.62
55.09 K	36.92 ± 0.62
55.9 K	37.74 ± 0.64
56.7 K	38.35 ± 0.65
57.51 K	38.9 ± 0.66
58.32 K	39.21 ± 0.67
59.12 K	39.75 ± 0.67
59.93 K	40.38 ± 0.68
60 K	40.57 ± 0.67
60.74 K	41.01 ± 0.69
61.55 K	41.64 ± 0.7
62.35 K	42.25 ± 0.72
63.15 K	42.88 ± 0.72
